From patent US7915012B2, “Methods for screening for inhibitors of TRPV2 activation” (Korea University Industry and Academic Collaboration …, priority 2008, dated 2011)
pEC50, pKd: −log10 of the molar value. Entries after “also recorded” stand apart in the source; their conditions may differ.

Columns and labels:
[1] = target: T1, rTRPV2 (Rattus norvegicus, UniProt Q9WUD2, A713V/L151P/T158I); assay: Fluo-3 calcium imaging in TRPV2 transfected HEK293T cell line; assay type: cell-based
T1 construct: expressed in transfected cells; host or cells: HEK293T (ATCC CRL-11268)
T1 sequence (Q9WUD2 1-761 L151P/T158I/A713V): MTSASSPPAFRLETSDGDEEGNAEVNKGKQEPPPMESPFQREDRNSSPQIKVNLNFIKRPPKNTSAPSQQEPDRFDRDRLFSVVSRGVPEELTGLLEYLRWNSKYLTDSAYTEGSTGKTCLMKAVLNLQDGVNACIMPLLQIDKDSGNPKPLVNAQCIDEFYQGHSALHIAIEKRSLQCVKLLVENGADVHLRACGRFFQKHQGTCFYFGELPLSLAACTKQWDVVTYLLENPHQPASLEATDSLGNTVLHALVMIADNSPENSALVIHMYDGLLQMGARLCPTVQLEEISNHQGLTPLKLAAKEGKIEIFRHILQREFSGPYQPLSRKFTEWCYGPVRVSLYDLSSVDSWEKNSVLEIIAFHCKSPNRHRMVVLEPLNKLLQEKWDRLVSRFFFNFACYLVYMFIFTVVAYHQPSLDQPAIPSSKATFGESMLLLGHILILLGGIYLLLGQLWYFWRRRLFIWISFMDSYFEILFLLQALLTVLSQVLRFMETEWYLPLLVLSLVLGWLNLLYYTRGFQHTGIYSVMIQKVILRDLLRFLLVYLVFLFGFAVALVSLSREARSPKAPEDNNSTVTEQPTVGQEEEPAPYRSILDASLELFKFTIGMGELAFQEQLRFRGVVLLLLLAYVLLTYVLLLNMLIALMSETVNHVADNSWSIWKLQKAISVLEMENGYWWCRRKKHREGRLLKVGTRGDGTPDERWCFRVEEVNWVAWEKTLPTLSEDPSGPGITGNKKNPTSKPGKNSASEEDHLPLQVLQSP
Procedure: (§1) HEK293T cell line (ATCC CRL-1 1268) was transiently transfected with plasmid DNA containing polynucleotide encoding […] (SEQ. ID. NO: 1), rTRPV2 (SEQ. ID. NO: 2), mTRPV3 (SEQ. ID. NO: 3), rTRPV4 (SEQ. ID. NO: 4), mTRPM8 (SEQ. ID. NO: 5) or mTRPA1 (SEQ. ID. NO: 6).
(§2) Particularly, the HEK293T cell line was transiently transfected with individual TRP channel plasmid (pcDNA3.1 containing polynucleotide encoding rTRPV1, rTRPV2, mTRPV3, rTRPV4, mTRPM8 or mTRPA1), and 600 ng/well of pCDNA3 (Invitrogen Corp., USA; containing green fluorescent protein (GFP) cDNA) using Fugene6 (Roche Diagnostics, USA) according to manufacturer's instruction. The transformed cells were cultured in DMEM/F12 containing 10% FBS and 1% penicillin/streptomycin in a CO2 incubator for 24 hours. The cells were replated onto poly-L-lysine-coated glass coverslips, followed by further culture for 10-24 hours.
The TRPV2 transfected cell line prepared in Example 1 was treated with 100 μM probenecid and 300 μM 2-APB.
The TRPV2 transfected cell line prepared in Example 1 was treated with probenecid at different concentrations from 0.1 to 1,000 μM.
Particularly, the transfected cell line of Example <3-1> and Example <3-2> was loaded with Fluo-3AM (5 μM; Sigma Aldrich, USA) in the bath solution (140 mM NaCl, 5 mM KCl, 2 mM CaCl2, 1 mM MgCl2, 10 mM HEPES; adjusted to pH 7.4 with NaOH) containing 0.02% pluronic acid (Invitrogen, USA) at 37° C. for 1 hour. Calcium imaging was performed with a confocal microscope (LSM5 Pascal, Carl Zeiss, Germany), and time-lapse images (excitation 488 nm/emission 514 nm) were collected every 3 seconds using Carl Zeiss ratio tool software (Carl Zeiss, Germany).
The TRPA1, TRPV1, TRPV2, TRPV3, TRPV4 and TRPM8 transfected cell lines prepared by the method of Example 1 and the non-transfected HEK cell line (control group) were treated with 100 μM probenecid. Calcium imaging was performed with the transfected cell lines treated as the above by the same manner as described in Example <3-3>.

[2] = target: T2, mTRPA1 (Mus musculus, UniProt Q8BLA8); assay: Fluo-3 calcium imaging in TRPA1 transfected HEK293T cell line; assay type: cell-based; conditions: 100 μM probenecid
T2 construct: expressed in transfected cells; host or cells: HEK293T (ATCC CRL-11268)
Procedure: as §1, §2
(§3) Particularly, the transfected cell line of Example <3-1> and Example <3-2> was loaded with Fluo-3AM (5 μM; Sigma Aldrich, USA) in the bath solution (140 mM NaCl, 5 mM KCl, 2 mM CaCl2, 1 mM MgCl2, 10 mM HEPES; adjusted to pH 7.4 with NaOH) containing 0.02% pluronic acid (Invitrogen, USA) at 37° C. for 1 hour. […]

[3] = target: T3, mTRPV3 (Mus musculus, UniProt Q8K424, A9V); assay: Fluo-3 calcium imaging in TRPV3 transfected HEK293T cell line; assay type: cell-based; conditions: 100 μM probenecid
T3 construct: expressed in transfected cells; host or cells: HEK293T (ATCC CRL-11268)
T3 sequence (Q8K424 1-791 A9V): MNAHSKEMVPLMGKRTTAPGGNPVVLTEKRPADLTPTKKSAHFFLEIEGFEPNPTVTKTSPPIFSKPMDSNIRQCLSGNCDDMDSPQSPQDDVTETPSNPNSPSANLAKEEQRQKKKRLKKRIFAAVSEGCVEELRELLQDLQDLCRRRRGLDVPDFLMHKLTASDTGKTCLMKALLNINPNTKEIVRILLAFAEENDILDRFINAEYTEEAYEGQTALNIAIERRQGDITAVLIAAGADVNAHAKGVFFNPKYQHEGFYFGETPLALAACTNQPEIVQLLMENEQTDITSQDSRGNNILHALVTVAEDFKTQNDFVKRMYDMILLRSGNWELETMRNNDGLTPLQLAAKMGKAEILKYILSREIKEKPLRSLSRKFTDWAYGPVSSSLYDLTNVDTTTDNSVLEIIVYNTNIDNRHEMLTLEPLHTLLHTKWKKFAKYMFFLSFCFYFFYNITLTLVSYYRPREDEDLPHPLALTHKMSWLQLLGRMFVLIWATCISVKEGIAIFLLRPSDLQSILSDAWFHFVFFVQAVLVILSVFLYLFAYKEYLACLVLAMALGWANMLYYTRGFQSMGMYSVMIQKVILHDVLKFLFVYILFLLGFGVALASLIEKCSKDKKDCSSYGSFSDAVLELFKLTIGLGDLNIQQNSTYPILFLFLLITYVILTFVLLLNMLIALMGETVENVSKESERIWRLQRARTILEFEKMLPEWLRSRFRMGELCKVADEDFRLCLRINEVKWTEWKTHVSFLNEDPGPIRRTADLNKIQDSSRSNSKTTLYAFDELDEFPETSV
Procedure: as §1, §2, §3

[4] = target: T4, rTRPV4 (Rattus norvegicus, UniProt Q9ERZ8); assay: Fluo-3 calcium imaging in TRPV4 transfected HEK293T cell line; assay type: cell-based; conditions: 100 μM probenecid
T4 construct: expressed in transfected cells; host or cells: HEK293T (ATCC CRL-11268)
Procedure: as §1, §2, §3

[5] = target: T5, mTRPM8 (Mus musculus, UniProt Q8R4D5); assay: Fluo-3 calcium imaging in TRPM8 transfected HEK293T cell line; assay type: cell-based; conditions: 100 μM probenecid
T5 construct: expressed in transfected cells; host or cells: HEK293T (ATCC CRL-11268)
Procedure: as §1, §2, §3

[6] = test system: trigeminal neurons; assay: Whole-cell voltage-clamp recording in trigeminal neurons; assay type: cell-based, ICR mice; conditions: 100 μM probenecid

T5 sequence (Q8R4D5 whole entry): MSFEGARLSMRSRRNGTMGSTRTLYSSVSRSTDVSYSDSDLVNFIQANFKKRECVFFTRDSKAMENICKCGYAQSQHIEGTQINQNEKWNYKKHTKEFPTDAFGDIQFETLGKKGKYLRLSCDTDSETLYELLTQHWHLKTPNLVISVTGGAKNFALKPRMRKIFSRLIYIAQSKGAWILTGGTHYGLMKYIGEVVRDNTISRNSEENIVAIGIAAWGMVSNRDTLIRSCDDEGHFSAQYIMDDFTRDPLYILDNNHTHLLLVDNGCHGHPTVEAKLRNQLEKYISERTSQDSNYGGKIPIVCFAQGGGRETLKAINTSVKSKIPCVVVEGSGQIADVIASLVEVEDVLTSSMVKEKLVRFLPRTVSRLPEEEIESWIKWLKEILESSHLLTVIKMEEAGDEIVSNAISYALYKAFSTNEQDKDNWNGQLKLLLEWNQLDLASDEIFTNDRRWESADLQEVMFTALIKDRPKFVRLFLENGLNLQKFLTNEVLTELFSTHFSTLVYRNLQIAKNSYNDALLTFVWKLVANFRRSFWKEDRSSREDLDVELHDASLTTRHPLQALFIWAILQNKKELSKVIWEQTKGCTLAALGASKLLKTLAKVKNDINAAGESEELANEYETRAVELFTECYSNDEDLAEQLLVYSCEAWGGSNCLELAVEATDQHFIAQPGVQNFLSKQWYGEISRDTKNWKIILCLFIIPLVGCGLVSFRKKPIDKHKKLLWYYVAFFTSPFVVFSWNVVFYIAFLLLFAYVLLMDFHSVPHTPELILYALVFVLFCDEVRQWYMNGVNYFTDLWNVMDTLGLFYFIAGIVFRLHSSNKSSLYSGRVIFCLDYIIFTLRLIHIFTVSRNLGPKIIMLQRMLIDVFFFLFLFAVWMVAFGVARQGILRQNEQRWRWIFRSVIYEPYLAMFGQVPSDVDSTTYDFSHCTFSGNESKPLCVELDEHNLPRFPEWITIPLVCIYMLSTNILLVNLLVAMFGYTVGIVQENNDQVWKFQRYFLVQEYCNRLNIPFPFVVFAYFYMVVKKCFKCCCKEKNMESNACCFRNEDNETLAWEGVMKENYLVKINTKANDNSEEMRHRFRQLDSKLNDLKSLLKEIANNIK
T4 sequence (Q9ERZ8 whole entry): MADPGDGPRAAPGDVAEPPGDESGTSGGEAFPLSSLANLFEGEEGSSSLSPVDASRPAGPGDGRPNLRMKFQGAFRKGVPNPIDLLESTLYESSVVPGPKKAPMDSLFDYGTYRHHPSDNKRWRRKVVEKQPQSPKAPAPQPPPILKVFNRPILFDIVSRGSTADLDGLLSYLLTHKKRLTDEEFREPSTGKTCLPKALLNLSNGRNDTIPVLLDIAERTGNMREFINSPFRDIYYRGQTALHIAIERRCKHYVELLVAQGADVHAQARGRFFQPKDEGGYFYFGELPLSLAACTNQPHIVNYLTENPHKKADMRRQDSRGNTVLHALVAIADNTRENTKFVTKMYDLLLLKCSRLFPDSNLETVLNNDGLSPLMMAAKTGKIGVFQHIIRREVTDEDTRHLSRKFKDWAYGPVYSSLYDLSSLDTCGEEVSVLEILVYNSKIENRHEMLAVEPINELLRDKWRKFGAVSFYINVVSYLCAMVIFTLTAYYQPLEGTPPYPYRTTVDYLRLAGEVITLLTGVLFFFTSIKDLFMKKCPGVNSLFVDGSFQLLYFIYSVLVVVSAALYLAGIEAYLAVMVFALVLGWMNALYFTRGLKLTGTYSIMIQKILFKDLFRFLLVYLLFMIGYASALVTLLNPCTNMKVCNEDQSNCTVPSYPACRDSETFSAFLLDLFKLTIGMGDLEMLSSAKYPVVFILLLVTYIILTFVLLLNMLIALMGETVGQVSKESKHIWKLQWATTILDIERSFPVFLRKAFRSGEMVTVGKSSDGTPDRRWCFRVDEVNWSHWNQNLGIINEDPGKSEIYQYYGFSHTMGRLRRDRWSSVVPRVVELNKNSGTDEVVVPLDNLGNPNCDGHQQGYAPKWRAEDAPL
T2 sequence (Q8BLA8 whole entry): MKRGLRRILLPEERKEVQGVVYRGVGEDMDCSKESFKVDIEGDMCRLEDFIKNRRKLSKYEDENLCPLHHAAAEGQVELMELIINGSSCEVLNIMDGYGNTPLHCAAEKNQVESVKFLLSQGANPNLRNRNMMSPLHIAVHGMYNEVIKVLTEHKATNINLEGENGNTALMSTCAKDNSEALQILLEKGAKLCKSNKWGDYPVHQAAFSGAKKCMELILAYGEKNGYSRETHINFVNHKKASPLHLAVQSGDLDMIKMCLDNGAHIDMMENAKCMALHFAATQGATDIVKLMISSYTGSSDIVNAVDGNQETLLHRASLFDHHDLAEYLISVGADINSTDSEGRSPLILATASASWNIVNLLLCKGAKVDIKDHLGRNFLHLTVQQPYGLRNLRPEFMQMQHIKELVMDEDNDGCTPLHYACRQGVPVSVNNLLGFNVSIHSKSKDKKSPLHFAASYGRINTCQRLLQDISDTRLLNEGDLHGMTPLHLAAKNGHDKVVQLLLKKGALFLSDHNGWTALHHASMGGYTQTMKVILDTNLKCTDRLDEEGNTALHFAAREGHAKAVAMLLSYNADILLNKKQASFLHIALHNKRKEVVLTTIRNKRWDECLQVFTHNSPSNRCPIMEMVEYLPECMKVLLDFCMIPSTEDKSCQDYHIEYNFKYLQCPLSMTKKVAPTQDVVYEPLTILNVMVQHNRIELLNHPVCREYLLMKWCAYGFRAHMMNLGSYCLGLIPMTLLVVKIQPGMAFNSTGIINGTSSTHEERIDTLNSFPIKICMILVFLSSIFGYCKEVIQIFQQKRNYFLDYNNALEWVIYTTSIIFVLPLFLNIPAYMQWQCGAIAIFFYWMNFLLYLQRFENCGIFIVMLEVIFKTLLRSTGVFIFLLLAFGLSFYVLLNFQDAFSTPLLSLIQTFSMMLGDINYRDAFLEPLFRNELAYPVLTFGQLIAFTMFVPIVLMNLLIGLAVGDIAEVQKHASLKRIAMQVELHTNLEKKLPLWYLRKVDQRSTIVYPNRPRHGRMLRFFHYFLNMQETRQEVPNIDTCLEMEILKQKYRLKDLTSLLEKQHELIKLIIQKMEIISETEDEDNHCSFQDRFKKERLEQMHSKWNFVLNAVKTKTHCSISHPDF

TRPV2 activation (calcium imaging) ([1]; 100 μM probenecid): activated
n (Hill plot of calcium influx responses) ([1]; n=12-62 per experimental value): 2.8
pKd ([1]; n=12-62 per experimental value, read-out: Kd (Hill plot of calcium influx responses)): 4.50
maximal effective dose ([1]; probenecid 0.1 to 1,000 μM, calcium influx): about 1 mM
pEC50 ([1]; probenecid 0.1 to 1,000 μM, calcium influx, read-out: EC50 (effective concentration 50%) on TRPV2): 4.50
Structure (SMILES): CCCN(CCC)S(=O)(=O)c1ccc(C(=O)O)cc1 [probenecid]
TRPA1 activation (calcium imaging) [2]: only TRPV2 was activated; also recorded: not confirmed
TRPV3 activation (calcium imaging) [3]: only TRPV2 was activated; also recorded: not confirmed
TRPV4 activation (calcium imaging) [4]: only TRPV2 was activated; also recorded: not confirmed
TRPM8 activation (calcium imaging) [5]: only TRPV2 was activated; also recorded: not confirmed
probenecid induced currents in 2-APB-sensitive trigeminal neurons [6]: exhibited outward rectifying
